Measurements reported in patent publication US6441027B1, “Method of regulating the female reproductive system through angiogenesis inhibitors” (Children's Medical Center Corporation, priority 1996, dated 2002).
“Also recorded” adds a separate entry of the source. Like-named read-outs stand apart in the source and are kept apart here.

What was measured:
inseminated mice [1] = experiment: Number of implantation sites after single dose pre-implantation; type: in vivo, mouse; settings: 30 mg/kg on E1, n=16
Procedure: The same procedures were followed as described above in Example 2 to administer 30 mg/kg AGM-1470 in single doses on the specified days. The mice were sacrificed and the number of implantation cites were counted. There was no decrease in the number of implantation cites when AGM-1470 was given on E1 [control mice had 8±0.2 implants (n=29), mice injected with AGM-1470 on E1 had 9±0.4 implants (n=16)].

[2] = test system: embryo and yolk sac blood vessels; experiment: Whole mount anti-CD31/PECAM staining of embryo and yolk sac on E9; type: in vivo, mouse; settings: 30 mg/kg on E7, studied E9
Procedure: Mice were treated with 30 mg/kg AGM-1470 following the same protocol in Example 2. The control and AGM-1470 treated embryos were studied on E9 by whole mount immunohistochemistry for CD-31/PECAM to stain blood vessels. The fetus and the yolk sack in the mice given AGM-1470 on E1 were excluded due to necrosis by E9. […] Loss of vascular development in the embryo could be due to either a direct effect of AGM-1470 on the embryonic vasculature or to a secondary effect caused by failure of normal placental and yolk sac development.
The whole-mount immunohistochemistry with monoclonal antibody to mouse PECAM (CD31) was performed essentially as described by Schlaeger^29 Embryos were dissected from the uterus and fixed in 4% paraformaldehyde, PBS at 4° Celsius overnight. The fixed embryos were subsequently rinsed in PBS at room temperature and dehydrated in a methanol series. The dehydrated embryos were bleached in 5% hydrogen peroxide in methanol for 4 to 5 hours at room temperature and then rinsed twice in methanol. Embryos were stored at −20° Celsius until used. The bleached embryos were rehydrated and blocked with PBSMT (3% instant skim milk, 0.1% Triton X-100, PBS) for one hour twice at room temperature. The embryos were then incubated with a 1:10 diluted hybridoma supernatant in PBSMT at 4° Celsius overnight. On the next day, the embryos were washed with PBSMT at 4° Celsius five times (1 hour each) and then incubated with a biotinylated secondary anti-rat IgG, mouse adsorbed (Vector Laboratories, Burlingame, Calif.) in PBSMT at 4° Celsius overnight. On the third day, the embryos were rinsed in PBSMT at 4° Celsius five times (1 hour each) and then incubated in avidin and horse radish conjugated biotin in PBSMT (1:100 dilution) (Vectastatin Elite Standard ABC Kit, Vector Laboratories) overnight at 4° Celsius. On the fourth day embryos were rinsed in PBSMT at 4° Celsius five time (1 hour each) and finally in PBT (0.2% BSA, 0.1% Triton-X100, PBS) for 20 minutes at room temperature. […]

inseminated mice [3] = experiment: Inseminated mice, single low dose 3 mg/kg; type: in vivo, mouse
Procedure: The same protocol was followed as was performed for AGM-1470 30 mg/kg except mice were injected with only 3 mg/kg AGM-1470 on E1 or E7. The 10-fold lower dose was tested to determine if a dose in which the fetuses come to term would produce birth defects. Mice were sacrificed at E18 and fetal viability, number of implantation cites, crown-rump length, and tail length were assessed.

female C57BL/6 mice = type: in vivo, mouse
Procedure: Group housed female C57BL/6 mice were treated with a single injection of AGM-1470 (30 mg/kg, s.c.) and paired with male breeders at various times after treatment. Treatment groups are designated as the number of days between plugging and treatment. The 6 control groups are combined and expressed as the mean±SD. The number of matings in per group is listed below each labeled group.
The experiment was designed to detect how long before mating a single dose of AGM-1470 might be effective. Sexually mature female mice were treated with a single dose of AGM-1470 (30 mg/kg, s.c.) up to five days prior to mating [designated E(−5), E(−4), E(−3), E(−2), E(−1), or E0 with the date of plugging being E0]. For treatments on E(−5) through E(−1), group-housed female mice were injected with AGM-1470 and then individually paired with male breeders at varying times after injection. For E0 treatment, females were paired with males and then plugged females were injected. Pregnancies were monitored by maternal weights and allowed to go to term. The contraceptive efficacy of a single dose of AGM-1470 on each of these days, calculated by the percentage of matings resulting in any viable deliveries […]. The contraceptive efficacy of a single dose of AGM-1470 on each of these days, expressed as the percentage of matings resulting in viable deliveries is illustrated in FIG. 8.

angiogenesis = settings: cited from earlier work

CO[C@@H]1[C@H](OC(=O)NC(=O)CCl)CC[C@]2(CO2)[C@H]1[C@@]1(C)O[C@@H]1CC=C(C)C [AGM-1470, O-chloroacetylcarbamoyl fumagillol]
number of implantation sites (inseminated mice [1]): 9±0.4 implants | CD31 labeled vessels in heart and liver bud [2]: almost a complete loss of CD31 labeled vessels | capillary density of embryo (CD31) [2]: loss of capillary density; also recorded: diffuse decrease in capillary density | capillary density of yolk sac (CD31) [2]: decrease in density and intercapillary distance of capillaries; also recorded: decreased capillary density | reduction of crown-rump length on E18 relative to control (inseminated mice [3]; 3 mg/kg on E1): 36% | reduction of tail length relative to control (inseminated mice [3]; 3 mg/kg on E1): 43% | fetal viability at E18 (inseminated mice [3]; 3 mg/kg on E1 (n=21 fetuses) or E7 (n=8 fetuses)): viable | crown-rump length on E18 (inseminated mice [3]; 3 mg/kg on E1, n=7 embryos): 13.0±0.1 mm | birth defects (inseminated mice [3]; 3 mg/kg on E1 or E7, fetuses at E18): no birth defects | reduction of crown-rump length on E18 relative to control (inseminated mice [3]; 3 mg/kg on E7): 19% | reduction of tail length relative to control (inseminated mice [3]; 3 mg/kg on E7): 12% | crown-rump length on E18 (inseminated mice [3]; 3 mg/kg on E7, n=7 embryos): 16.5±0.5 mm | tail length on E18 (inseminated mice [3]; 3 mg/kg on E7, n=7 embryos): 10.0±0.1 mm | effect on live births (female C57BL/6 mice; single dose 30 mg/kg s.c. on E0): completely block live births | effect on live births (female C57BL/6 mice; single dose 30 mg/kg s.c. on E(-1)): completely block live births | reduction of percentage of animals with successful pregnancies (female C57BL/6 mice; single dose 30 mg/kg s.c. on E(-2)): 80% | frequency of litters (female C57BL/6 mice; single dose 30 mg/kg s.c. three to five days prior to mating): same frequency as controls | number of dead births relative to controls (female C57BL/6 mice; single dose 30 mg/kg s.c., any time point E(-5) to E0): No differences | percentage of mated animals with viable births (female C57BL/6 mice; single dose 30 mg/kg s.c., treatments on E0, E-1 and E-2 (FIG. 8)): inhibition of viable births | activity relative to parent compound fumagillin (angiogenesis): 50 times
